# Values quoted from earlier work as cited in patent publication US20070219220A1, “Pyrazolopyrimidinethione Derivatives, Salts and Solvates Thereof, Preparation Methods and Use Thereof” (priority 2003, published 2007).
# Like-named read-outs stand apart in the source and are kept apart here.
# Tests used:
# healthy mice = conditions: within two hours, cited from earlier work
# dog = conditions: cited from earlier work
# [1] = prior-art filings, background section; cited from earlier work
structure (smiles),measurement,setting,value
"CCCc1nn(CC)c2c(=O)[nH]c(-c3cc(S(=O)(=O)N4C[C@@H](C)N[C@@H](C)C4)ccc3OCC)nc12 [5-[2-ethoxy-5-(cis-3,5-dimethylpiperazine-1-sulfonyl)phenyl]-1-ethyl-3-n-propyl-1,6-dihydro-7H-pyrazolopyrimidin-7-one]",occurrences of back climbing,healthy mice; oral 15 mg/kg,56.6%
same,times of back climbing on the female mice performed by the male mice,healthy mice; oral 15 mg/kg,43
same,occurrences of back climbing,healthy mice; oral 30 mg/kg,62.5%
same,times of back climbing on the female mice performed by the male mice,healthy mice; oral 30 mg/kg,53
same,diastolic pressure and heart rate (in words),dog,dramatically decrease diastolic pressure and increase heart rate
same,LD50,[1],greater than 2000 mg/kg
